The nature of data set [1]: Stability experiment: retention rate of reduced coenzyme Q10 on storage. It is filed as physicochemical. The conditions noted are these: stored under shading or nitrogen at 18° C. How it is done:
Determining the proportion of reduced coenzyme Q10 in reduced coenzyme Q10 powder or crystals by the HPLC method. Determination conditions are as follows:
Instruments: Agilient 1210
Mobile phase: ethanol/methanol=4/3(V/V)
Detection wavelength: 210 nm
Sample 1 and Sample 2 and Sample 3 obtained by Example 1, Example 2, Example 3 are respectively stored under shading or nitrogen for two months at 18° C. The retention rate of reduced coenzyme Q10 is respectively determined within 1 month and 2 months.

The nature of data set [2]: Beagle feeding experiment: pharmacokinetic parameters and relative bioavailability. The class given is in vivo. As to conditions: gastric gavage 20 mg/kg, average. As for the experimental part: Sample 1 and Sample 2 and Sample 3 obtained by Example 1, Example 2, Example 3 are used for beagle feeding experiment respectively, and the reduced coenzyme Q10 concentration in blood of feed beagle is determined, a basic pharmacokinetic parameters and relative bioavailability is calculated.
4 beagles, half male and half female, 9-12 kg weight, provided by Shanghai Institute of Medicine Center for experimental animals, laboratory animals use license: SYXK (Shanghai), 2010-0049. A cross double cycle test is made. Gastric gavage is respectively for Sample 1, 2, 3, to fill stomach in a dose of 20 mg/kg, a delivery volume of 2 ml/kg. Samples with a suspension of soybean oil mixture for medicine (filling water 20 ml after feeding), normally feeding and drinking before testing, feeding feed containing meat on morning of the same day of feeding the medicine, to fill the stomach after 30 min. Two cycle tests are interval for a week.
Calculate the Pharmacokinetic Parameters of Compounds by WinNonlin 5.3 Software.
Peak-reaching time Tmax and peak-reaching concentration Cmax use measured values. Drug concentration area under time curve AUC0-t value is calculated by the trapezoidal method, AUC0-∞ is calculated by the formula AUC0-∞=AUC0-t+Ct/ke. Ct is a concentration measured by the last time point, ke is an eliminate rate constant, with half logarithmic mapping method, calculation by eliminating the concentration of the phase; Plasma elimination half-life t1/2=0.693/ke. Relative bioavailability F=(AUC0-t, Sample 2 or 3/AUC0-t, Sample 1)×100%. The main pharmacokinetic parameters after Beagle lavage for 20 mg/kg sample.

[3] abbreviates: both sexes, dog, blood, po, 20 mg/kg, suspension in soybean oil.

Read-outs that look alike come from different tables or passages of the source.

Turning to `COc1c(O)c(C)c(C/C=C(\C)CC/C=C(\C)CC/C=C(\C)CC/C=C(\C)CC/C=C(\C)CC/C=C(\C)CC/C=C(\C)CC/C=C(\C)CC/C=C(\C)CCC=C(C)C)c(O)c1OC` [Sample 1, reduced coenzyme Q10], in data set [1], the “The retention rate of reduced coenzyme Q10 within 1 month” value is 98.4% and the “The retention rate of reduced coenzyme Q10 within 2 months” value is reported as 95.5%. Moreover, the “The retention rate of reduced coenzyme Q10 within 2 months” value in data set [1] (listed as reduced coenzyme Q10 powder obtained by the method) was determined as 95.5%. Moreover, in data set [2] (suspension in soybean oil), the AUC0-t stood at 3.64 µg·h/mL, the “AUC0-∞” value was 2.865 µg·h/mL, the peak concentration (Cmax) worked out at 0.303 µg/mL and the MRT worked out at 10.9 h. For the same compound, in data set [2] (suspension in soybean oil), the time to peak (Tmax) turned out to be 7.5 h and the t1/2 is 6.11 h.

Turning to `COc1c(O)c(C)c(C/C=C(\C)CC/C=C(\C)CC/C=C(\C)CC/C=C(\C)CC/C=C(\C)CC/C=C(\C)CC/C=C(\C)CC/C=C(\C)CC/C=C(\C)CCC=C(C)C)c(O)c1OC` [Sample 2, reduced coenzyme Q10], in data set [1], the “The retention rate of reduced coenzyme Q10 within 1 month” value was determined as 75.4% and the “The retention rate of reduced coenzyme Q10 within 2 months” value came out at 66.3%. Moreover, the “The retention rate of reduced coenzyme Q10 within 2 months” value in data set [1] (listed as Samples 2) was 66.3%. Further, in data set [2] (suspension in soybean oil), the AUC0-t worked out at 2.359 µg·h/mL, the “AUC0-∞” value was determined as 2.405 µg·h/mL, the Cmax was 0.261 µg/mL and the mean residence time MRT came out at 7.77 h. For the same compound, in data set [2] (suspension in soybean oil), the Tmax was 4.5 h and the t1/2 is on record as 3.94 h.

For `COc1c(O)c(C)c(C/C=C(\C)CC/C=C(\C)CC/C=C(\C)CC/C=C(\C)CC/C=C(\C)CC/C=C(\C)CC/C=C(\C)CC/C=C(\C)CC/C=C(\C)CCC=C(C)C)c(O)c1OC` [Sample 3, reduced coenzyme Q10], in data set [1], the “The retention rate of reduced coenzyme Q10 within 1 month” value came out at 89.3% and the “The retention rate of reduced coenzyme Q10 within 2 months” value came to 85.4%. The compound also showed a bioavailability in data set [2] (both sexes, dog, blood, po, 20 mg/kg, F=(AUC0-t, Sample 2 or 3/AUC0-t, Sample 1)×100%) of 74.7%. In data set [2] (setting [3]), the area under the curve AUC(0-inf) was found to be 2.66 µg·h/mL and the half-life was 4.76 h. The AUC0-t in data set [2] (both sexes, dog, blood, po, 20 mg/kg, suspension in soybean oil, read-out: AUC0-t) was determined as 2.77 µg·h/mL. Also, the Cmax in data set [2] (both sexes, dog, blood, po, 20 mg/kg, suspension in soybean oil, read-out: Cmax) was 0.287 µg/mL. The MRT in data set [2] (both sexes, dog, blood, po, 20 mg/kg, suspension in soybean oil, read-out: MRT) turned out to be 8.35 h. For the same compound, in data set [2] (both sexes, dog, blood, po, 20 mg/kg, suspension in soybean oil, read-out: Tmax), the time to peak (Tmax) is 6.3 h.

What is called Cmax is the peak of the concentration-time curve. Usually MRT stands for the average time that molecules of a dose stay in the body. The Tmax is the time at which the peak concentration occurs. Usually bioavailability stands for dose-corrected exposure relative to a reference, in per cent. The low end stands for little systemic uptake, the high end for much systemic uptake. As a reminder, the AUC(0-inf) is total exposure, with the tail of the curve extrapolated. A low value points to less exposure. Broadly, the half-life is the time needed for the level to fall by half in the phase considered. Higher therefore signals slow loss.

For the origin of these results see patent US10028914B2, “Reduction type coenzyme Q10 powder, composition thereof, and preparation method thereof” (Zhejiang Medicine Co., Ltd. Xinchang Pharmaceutical Factory, priority 2013, dated 2018).
